Results as given in patent US20050101518A1, “Methods of treating conditions associated with an EDG-2 receptor” (priority 2002, published 2005).

Tests used:
Edg 8 receptor = biological target: T1, Edg 8 receptor (Homo sapiens, UniProt Q9H228); experiment: Intracellular calcium measurement (FLIPR), S1P-stimulated calcium increases in HTC cells expressing Edg 8; assay type: cell-based; settings: FIG. 1 and 2
T1 construct: expressed in transfected cells; host or cells: HTC (rat hepatoma) cells

[1] = test system: forskolin-stimulated cAMP production; experiment: cAMP assay: LPA inhibition of forskolin-stimulated cAMP production; assay type: cell-based; settings: 10 μM compound; FIG. 4
Procedure: Cells were plated in a 96 well format. Treatments were performed directly without any serum starvation. The cells were treated with forskolin to induce cAMP production, followed by LPA or S1P doses in the range from 0.1-10 μM in serum free medium. Following a 30-minute incubation period, the cells were lysed and the level of cAMP was determined.
The cAMP assay was performed using the Tropix cAMP-Screen (Applied BioSystems, Foster City, Calif.). The screen is a competitive immunoassay that utilizes a 96 well assay plate precoated with an anti-cAMP antibody. Cell lysates were added to the precoated plate, along with a cAMP-AP conjugate and a secondary anti-cAMP antibody.
Detection was performed using a substrate solution and chemiluminescent readout. The level of chemiluminescence was inversely proportional to the level of cAMP and was calculated from a standard curve.

Edg-7 receptor = biological target: T2, Edg-7 receptor (Homo sapiens, UniProt Q9UBY5); experiment: Intracellular calcium measurement (FLIPR), LPA-stimulated calcium increases in HTC cells expressing Edg-7; assay type: cell-based; settings: FIG. 1 and 2
T2 construct: expressed in transfected cells; host or cells: HTC (rat hepatoma) cells
T2 sequence (Q9UBY5 whole entry): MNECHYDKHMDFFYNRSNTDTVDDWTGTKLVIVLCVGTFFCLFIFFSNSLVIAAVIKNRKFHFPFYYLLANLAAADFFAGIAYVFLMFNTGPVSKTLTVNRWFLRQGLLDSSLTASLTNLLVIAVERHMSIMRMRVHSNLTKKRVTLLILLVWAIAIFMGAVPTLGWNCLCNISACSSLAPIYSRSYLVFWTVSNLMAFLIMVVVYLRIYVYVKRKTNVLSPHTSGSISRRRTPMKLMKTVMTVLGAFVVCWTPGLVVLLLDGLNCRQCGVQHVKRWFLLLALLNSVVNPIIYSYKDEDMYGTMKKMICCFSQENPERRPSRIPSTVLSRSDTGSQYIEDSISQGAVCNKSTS

Edg 6 receptor = biological target: T3, Edg 6 receptor (Homo sapiens, UniProt O95977); experiment: Intracellular calcium measurement (FLIPR), S1P-stimulated calcium increases in HTC cells expressing Edg 6; assay type: cell-based; settings: for inhibition of S1P-stimulated calcium increases, Edg 6: FIG. 1 and 2; for IC50: calcium mobilization
T3 construct: expressed in transfected cells; host or cells: HTC (rat hepatoma) cells
T3 sequence (O95977 1-384): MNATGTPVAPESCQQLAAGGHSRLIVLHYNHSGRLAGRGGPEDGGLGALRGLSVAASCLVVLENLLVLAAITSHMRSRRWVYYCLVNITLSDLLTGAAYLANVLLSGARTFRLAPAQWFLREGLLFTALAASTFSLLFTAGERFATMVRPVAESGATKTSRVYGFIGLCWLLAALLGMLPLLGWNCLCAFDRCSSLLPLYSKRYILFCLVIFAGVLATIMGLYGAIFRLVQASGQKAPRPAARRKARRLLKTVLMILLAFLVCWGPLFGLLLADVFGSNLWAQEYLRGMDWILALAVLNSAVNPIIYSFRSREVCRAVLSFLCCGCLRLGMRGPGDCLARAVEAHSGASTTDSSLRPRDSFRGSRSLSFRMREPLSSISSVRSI

Edg 1 receptor = biological target: T4, Edg 1 receptor (Homo sapiens, UniProt P21453); experiment: Intracellular calcium measurement (FLIPR), S1P-stimulated calcium increases in HTC cells expressing Edg 1; assay type: cell-based; settings: FIG. 1 and 2
T4 construct: expressed in transfected cells; host or cells: HTC (rat hepatoma) cells
T4 sequence (P21453 whole entry): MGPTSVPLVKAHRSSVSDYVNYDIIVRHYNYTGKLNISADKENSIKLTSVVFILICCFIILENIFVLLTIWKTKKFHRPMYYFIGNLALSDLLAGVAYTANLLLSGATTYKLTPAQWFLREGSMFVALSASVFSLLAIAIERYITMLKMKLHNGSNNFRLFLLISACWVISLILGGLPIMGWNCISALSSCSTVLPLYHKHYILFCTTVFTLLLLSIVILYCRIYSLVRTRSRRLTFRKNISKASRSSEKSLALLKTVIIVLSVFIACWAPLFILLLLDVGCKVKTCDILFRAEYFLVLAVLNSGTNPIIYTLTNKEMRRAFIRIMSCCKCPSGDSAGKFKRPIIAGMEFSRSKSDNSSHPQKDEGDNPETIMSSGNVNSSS

Edg-4 receptor = biological target: T5, Edg-4 receptor (Homo sapiens, UniProt Q9HBW0); experiment: Intracellular calcium measurement (FLIPR), LPA-stimulated calcium increases in HTC cells expressing Edg-4; assay type: cell-based; settings: FIG. 1 and 2
T5 construct: expressed in transfected cells; host or cells: HTC (rat hepatoma) cells
T5 sequence (Q9HBW0 whole entry): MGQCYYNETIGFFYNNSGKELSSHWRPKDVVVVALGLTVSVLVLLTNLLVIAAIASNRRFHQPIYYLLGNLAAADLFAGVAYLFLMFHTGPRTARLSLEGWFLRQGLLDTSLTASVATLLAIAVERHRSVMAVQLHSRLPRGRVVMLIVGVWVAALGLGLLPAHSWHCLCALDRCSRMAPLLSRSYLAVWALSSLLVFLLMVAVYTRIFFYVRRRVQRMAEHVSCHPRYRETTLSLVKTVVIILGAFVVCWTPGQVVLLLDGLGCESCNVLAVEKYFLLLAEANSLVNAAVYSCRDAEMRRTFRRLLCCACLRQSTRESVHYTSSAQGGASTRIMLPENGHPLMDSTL

[2] = test system: immortalized ovarian surface epithelial cells; experiment: LPA-stimulated calcium mobilization in immortalized ovarian surface epithelial cells; assay type: cell-based; settings: 10 μM compound, FIG. 3
Description: [The procedure below names another cell line; the source lists this cell line under the same test.] (§1) LPA receptors such as Edg-2, couple to calcium effector pathways, and result in increases in intracellular calcium following receptor activation (An, 1998, J. Cell. Biochem. Supp., 30-31: 147-157). This biological response lends itself to a very efficient, high-throughput screen using a Fluorescence Imaging Plate Reader (FLIPR; Molecular Devices, Sunnyvale, Calif.). The FLIPR system is a real-time, cell-based assay system with continuous fluorescence detection using a cooled CCD camera. The FLIPR system was used to developing an Edg-2 receptor screen. Rat hepatoma cells stably expressing Edg-2 receptor were plated on 384-well plates and loaded with a calcium dye loading kit (Molecular Devices, Sunnyvale, Calif.) for 1 hour at room temperature. Cells were then placed on the FLIPR^384 (Molecular Devices, Sunnyvale, Calif.) and excited by an argon laser at 488 nm. The data for the entire 384-well plate was updated every second. An integrated robotic pipettor allowed for simultaneous compound addition into each individual well in the plate.

[3] = test system: various targets tested, including other GPCRs, ion channels, and enzymes; experiment: Pharmacology profiling (selectivity assays) at various non-Edg targets; assay type: binding
Description: Res. Comm. 181:1365-1371. […] Exp Ther. 268:1122-1127. […] 31:997-1004.

Edg 3 receptor = biological target: T6, Edg 3 receptor (Homo sapiens, UniProt Q99500); experiment: Intracellular calcium measurement (FLIPR), S1P-stimulated calcium increases in HTC cells expressing Edg 3; assay type: cell-based; settings: FIG. 1 and 2
T6 construct: expressed in transfected cells; host or cells: HTC (rat hepatoma) cells
T6 sequence (Q99500 whole entry): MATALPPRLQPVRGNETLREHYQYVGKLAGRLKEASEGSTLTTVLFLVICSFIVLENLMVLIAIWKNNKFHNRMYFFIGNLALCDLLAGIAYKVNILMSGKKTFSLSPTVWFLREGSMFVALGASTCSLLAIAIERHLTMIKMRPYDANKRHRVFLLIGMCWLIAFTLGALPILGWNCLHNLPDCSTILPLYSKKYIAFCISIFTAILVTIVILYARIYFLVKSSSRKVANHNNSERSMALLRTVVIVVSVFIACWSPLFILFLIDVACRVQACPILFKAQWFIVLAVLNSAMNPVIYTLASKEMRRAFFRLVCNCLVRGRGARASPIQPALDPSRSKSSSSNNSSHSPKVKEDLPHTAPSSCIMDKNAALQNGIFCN

Edg 5 receptor = biological target: T7, Edg 5 receptor (Homo sapiens, UniProt O95136); experiment: Intracellular calcium measurement (FLIPR), S1P-stimulated calcium increases in HTC cells expressing Edg 5; assay type: cell-based; settings: FIG. 1 and 2
T7 construct: expressed in transfected cells; host or cells: HTC (rat hepatoma) cells
T7 sequence (O95136 whole entry): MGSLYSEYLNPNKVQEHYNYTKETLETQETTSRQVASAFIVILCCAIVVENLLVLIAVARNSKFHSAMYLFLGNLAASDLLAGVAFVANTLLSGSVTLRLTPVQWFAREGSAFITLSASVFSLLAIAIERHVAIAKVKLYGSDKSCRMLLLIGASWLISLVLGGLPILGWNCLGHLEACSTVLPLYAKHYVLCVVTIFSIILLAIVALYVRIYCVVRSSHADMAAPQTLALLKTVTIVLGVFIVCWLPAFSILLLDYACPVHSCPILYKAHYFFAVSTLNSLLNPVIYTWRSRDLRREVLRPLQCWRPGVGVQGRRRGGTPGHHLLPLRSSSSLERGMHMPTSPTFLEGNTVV

Edg-2 receptor = biological target: T8, Edg-2 receptor (Homo sapiens, UniProt Q92633); experiment: Intracellular calcium measurement (FLIPR), LPA-stimulated calcium increases in rat hepatoma (HTC) cells stably expressing Edg-2; assay type: cell-based; settings: for inhibition of the Edg 2 receptor: FIG. 1 and 2; for IC50: calcium mobilization, HTC cells expressing Edg 2; for Fold Selective: selectivity for Edg-2 relative to other Edg receptors
T8 construct: expressed in transfected cells
T8 sequence (Q92633 whole entry): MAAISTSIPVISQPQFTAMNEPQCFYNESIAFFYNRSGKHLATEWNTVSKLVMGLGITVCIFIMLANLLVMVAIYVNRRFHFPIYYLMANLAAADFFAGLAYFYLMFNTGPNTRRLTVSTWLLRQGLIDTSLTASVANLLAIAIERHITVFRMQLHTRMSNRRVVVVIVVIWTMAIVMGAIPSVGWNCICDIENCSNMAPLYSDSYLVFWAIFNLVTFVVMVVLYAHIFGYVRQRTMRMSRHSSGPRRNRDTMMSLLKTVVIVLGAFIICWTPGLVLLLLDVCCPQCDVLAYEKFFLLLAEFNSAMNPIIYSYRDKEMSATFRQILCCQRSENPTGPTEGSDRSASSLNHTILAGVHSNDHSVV
Description: as §1

[4] = test system: A431 human epitheloid carcinoma cells; experiment: LPA-stimulated calcium mobilization in A431 human epitheloid carcinoma cells; assay type: cell-based; settings: for inhibition of LPA-stimulated calcium mobilization: 10 μM compound, FIG. 6
Description: [The procedure below names another cell line; the source lists this cell line under the same test.] as §1

Endothelin ETA = Endothelin ETA (Homo sapiens, UniProt P25101); settings: significance criteria ≧50% of max stimulation or inhibition; Table 2
Sequence of Endothelin ETA (P25101 21-427): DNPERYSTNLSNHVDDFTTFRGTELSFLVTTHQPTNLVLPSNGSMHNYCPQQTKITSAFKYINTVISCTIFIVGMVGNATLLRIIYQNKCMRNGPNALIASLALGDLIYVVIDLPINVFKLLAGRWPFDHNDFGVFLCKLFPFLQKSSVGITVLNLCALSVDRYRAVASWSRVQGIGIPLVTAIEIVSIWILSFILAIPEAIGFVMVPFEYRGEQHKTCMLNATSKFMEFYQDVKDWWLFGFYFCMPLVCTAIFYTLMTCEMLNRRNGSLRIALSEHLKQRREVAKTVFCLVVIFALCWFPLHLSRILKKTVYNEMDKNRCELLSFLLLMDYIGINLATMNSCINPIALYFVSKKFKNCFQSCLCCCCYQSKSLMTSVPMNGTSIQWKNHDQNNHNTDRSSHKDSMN
Procedure: (§2) A radioligand binding assay was performed using adrenergic α1 according to the method of Greengrass and Bremner 1979, Eur. J. Pharmacol. 55:323-326. A radioligand binding assay was performed using adrenergic α2 according to the method of Boyajian and Leslie, 1987, J. Pharmacol. Exp. Ther. 241:1092-1098. A redioligand binding assay was performed using adrenergic β according to the method of Feve et al., 1994, Proc. Natl. Acad. Sci. USA 91:5677-5681. A radioligand binding assay was performed using angiotensin AT2 according to the method of Whitebread el al., 1991, Biochem. Biophys. Res. Comm. 181:1365-1371. A radioligand binding assay was performed using calcium channel Type L, dihydropyridine according to the method of Ehlert et al., 1982, Life Sci. 30:2191-2202. A radioligand binding assay was performed using dopamine D2L according to the method of Bunzo et al., 1988, Nature 336:783-787. A radioligand binding assay was performed using endothelin ETA according to the method of Mihara et al., 1994, J. Phrmacol. Exp Ther. 268:1122-1127. A radioligand binding assay was performed using histamine H1 Central according to the method of Hill et al., 1978, J. Neurochem. 31:997-1004. A radioligand binding assay was performed using Muscarinic non-selective, Central according to the method of Luthin and Wolfe, 1984, J. Pharmacol. Exp. Ther. 228:648-655. A radioligand binding assay was performed using serotonin 5-HT1, non-selective according to the method of Middlemiss, 1984, Eur. J. Pharmacol. 101:289-293).

Angiotensin AT2 = Angiotensin AT2 (Homo sapiens, UniProt P50052); settings: significance criteria ≧50% of max stimulation or inhibition; Table 2
Sequence of Angiotensin AT2 (P50052 whole entry): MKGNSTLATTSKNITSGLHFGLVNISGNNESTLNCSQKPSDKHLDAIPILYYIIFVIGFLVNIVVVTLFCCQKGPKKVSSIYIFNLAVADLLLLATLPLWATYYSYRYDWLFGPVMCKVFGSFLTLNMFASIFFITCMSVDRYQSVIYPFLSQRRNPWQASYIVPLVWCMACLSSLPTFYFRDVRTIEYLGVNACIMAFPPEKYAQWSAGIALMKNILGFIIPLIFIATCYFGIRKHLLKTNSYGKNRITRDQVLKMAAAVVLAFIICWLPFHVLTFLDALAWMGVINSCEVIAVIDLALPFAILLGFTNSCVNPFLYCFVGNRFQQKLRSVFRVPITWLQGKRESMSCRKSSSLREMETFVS
Procedure: as §2

[5] = test system: Serotonin 5-HT1, non-selective; settings: significance criteria ≧50% of max stimulation or inhibition; Table 2
Procedure: as §2

Adrenergic α2 = settings: significance criteria ≧50% of max stimulation or inhibition; Table 2
Procedure: as §2

[6] = test system: Adrenergic α1, non-selective; settings: significance criteria ≧50% of max stimulation or inhibition; Table 2
Procedure: as §2

Histamine H1, Central = Histamine H1, Central (Cavia porcellus, UniProt P31389); settings: significance criteria ≧50% of max stimulation or inhibition; Table 2
Sequence of Histamine H1, Central (P31389 whole entry): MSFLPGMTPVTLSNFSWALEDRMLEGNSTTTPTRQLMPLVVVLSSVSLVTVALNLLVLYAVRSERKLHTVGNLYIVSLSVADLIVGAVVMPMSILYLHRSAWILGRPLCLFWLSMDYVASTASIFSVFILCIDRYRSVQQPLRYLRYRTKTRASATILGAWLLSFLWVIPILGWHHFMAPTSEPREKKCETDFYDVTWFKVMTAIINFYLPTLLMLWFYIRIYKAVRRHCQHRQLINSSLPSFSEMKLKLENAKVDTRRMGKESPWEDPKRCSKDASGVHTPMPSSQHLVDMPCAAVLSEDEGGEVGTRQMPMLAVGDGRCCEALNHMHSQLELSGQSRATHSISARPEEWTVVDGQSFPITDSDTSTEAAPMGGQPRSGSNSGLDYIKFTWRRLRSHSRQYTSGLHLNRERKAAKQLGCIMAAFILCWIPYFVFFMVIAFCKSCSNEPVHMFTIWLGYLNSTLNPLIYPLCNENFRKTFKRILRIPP
Procedure: as §2

[7] = test system: Calcium Channel Type L, Dihydropyridine; settings: significance criteria ≧50% of max stimulation or inhibition; Table 2
Procedure: as §2

Dopamine D2L = Dopamine D2L (Homo sapiens, UniProt P14416); settings: significance criteria ≧50% of max stimulation or inhibition; Table 2
Sequence of Dopamine D2L (P14416 whole entry): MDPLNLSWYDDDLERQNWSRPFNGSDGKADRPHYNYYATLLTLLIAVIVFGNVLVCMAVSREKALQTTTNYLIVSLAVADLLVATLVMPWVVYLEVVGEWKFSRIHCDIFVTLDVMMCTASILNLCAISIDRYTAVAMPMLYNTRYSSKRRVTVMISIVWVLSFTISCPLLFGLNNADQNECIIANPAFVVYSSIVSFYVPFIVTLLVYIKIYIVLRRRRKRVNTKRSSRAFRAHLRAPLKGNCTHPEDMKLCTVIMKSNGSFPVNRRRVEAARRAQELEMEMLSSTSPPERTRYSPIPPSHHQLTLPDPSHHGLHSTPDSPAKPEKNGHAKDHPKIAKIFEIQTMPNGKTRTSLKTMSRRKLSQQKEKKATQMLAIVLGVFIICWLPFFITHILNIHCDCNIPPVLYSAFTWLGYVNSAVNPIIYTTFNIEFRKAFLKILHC
Procedure: as §2

[8] = test system: Muscarinic non-selective, Central; settings: significance criteria ≧50% of max stimulation or inhibition; Table 2
Procedure: as §2

Adrenergic β = settings: significance criteria ≧50% of max stimulation or inhibition; Table 2
Procedure: as §2

T1 sequence (Q9H228 whole entry): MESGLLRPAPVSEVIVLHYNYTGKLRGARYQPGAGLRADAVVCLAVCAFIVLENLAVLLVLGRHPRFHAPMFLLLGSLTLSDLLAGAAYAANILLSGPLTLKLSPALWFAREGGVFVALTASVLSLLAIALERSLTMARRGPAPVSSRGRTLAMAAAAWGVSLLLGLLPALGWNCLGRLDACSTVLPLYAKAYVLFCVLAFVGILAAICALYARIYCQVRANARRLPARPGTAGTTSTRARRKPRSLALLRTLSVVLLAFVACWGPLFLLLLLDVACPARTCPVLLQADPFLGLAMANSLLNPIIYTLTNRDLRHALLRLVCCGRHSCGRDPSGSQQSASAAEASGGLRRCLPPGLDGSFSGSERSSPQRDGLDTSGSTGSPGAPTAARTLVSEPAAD

Structure (SMILES) | inhibition of S1P-stimulated calcium increases, Edg 8 (Edg 8 receptor) | reversal of LPA inhibition of forskolin-stimulated cAMP production [1] | inhibition of LPA-stimulated calcium increases, Edg 7 (Edg-7 receptor) | inhibition of S1P-stimulated calcium increases, Edg 6 (Edg 6 receptor) | IC50 (Edg 6 receptor) [µM] | inhibition of S1P-stimulated calcium increases, Edg 1 (Edg 1 receptor) | inhibition of LPA-stimulated calcium increases, Edg 4 (Edg-4 receptor) | inhibition of LPA-stimulated calcium mobilization [2] | activity at various targets tested, including other GPCRs, ion channels, and enzymes [3] | inhibition of S1P-stimulated calcium increases, Edg 3 (Edg 3 receptor) | inhibition of S1P-stimulated calcium increases, Edg 5 (Edg 5 receptor) | inhibition of the Edg 2 receptor (Edg-2 receptor) | IC50 (Edg-2 receptor) [µM] | Fold Selective (Edg-2 receptor) | inhibition of LPA-stimulated calcium mobilization [4] | other results
CCn1nc(C)c(-c2ccccc2O)c1-c1ccccc1 [Compound 103, 2(1-Ethyl-3-methyl-5-phenyl-1H-pyrazol-4-yl)phenol] | did not inhibit | reverses the inhibitory effects of LPA | did not inhibit | did not inhibit | > 20 | did not inhibit | did not inhibit | almost completely inhibited | did not demonstrate any significant activity | did not inhibit | did not inhibit | specifically inhibited | 0.64 | >31.3 | inhibition | 
CCOc1ccccc1N1C(=O)CC(N(O)c2ccc(F)cc2)C1=O (stereo not shown) [Compound 111, 1-(2-Ethoxyphenyl)-3-[(4-fluorophenyl)hydroxylamino]pyrrolidine-2,5-dione] |  |  |  |  |  |  |  |  |  |  |  |  |  |  |  | melting point: 123 to 124 °C
O=C(CC(=O)C(F)(F)F)Nc1cc(-c2ccccc2)n[nH]1 [Compound 201, 4,4,4-trifluoro-3-oxo-N-(5-phenyl-2H-pyrazol-3-yl)butyramide, reference compound] |  | little to no effect |  |  |  |  |  | little to no effect |  |  |  |  |  |  | not | 
CCOc1ccccc1N1C(=O)CC(N(O)c2ccccc2)C1=O (stereo not shown) [Compound 101, 1-(2-Ethoxyphenyl)-3-(hydroxyphenylamine)-pyrrolidine-2,5-dione] | did not inhibit |  | did not inhibit | did not inhibit | > 20 | did not inhibit | did not inhibit |  | did not demonstrate any significant activity | did not inhibit | did not inhibit | specifically inhibit | 1.4 | >14.3 | inhibition | activity in radioligand binding assay, Endothelin ETA (Endothelin ETA): no significant activity; activity in radioligand binding assay, Angiotensin AT2 (Angiotensin AT2): no significant activity; activity in radioligand binding assay, Serotonin 5HT1 non-selective [5]: no significant activity; activity in radioligand binding assay, Adrenergic Alpha 2, non-selective (Adrenergic α2): no significant activity; activity in radioligand binding assay, Adrenergic Alpha 1, non-selective [6]: no significant activity; activity in radioligand binding assay, H1 central (Histamine H1, Central): no significant activity; activity in radioligand binding assay, Calcium Channels Type L, DHP [7]: no significant activity; activity in radioligand binding assay, Dopamine D2L (Dopamine D2L): no significant activity; activity in radioligand binding assay, Muscarinic, non-selective, central [8]: no significant activity; activity in radioligand binding assay, Adrenergic Beta, non-selective (Adrenergic β): no significant activity; inhibition of LPA-stimulated calcium mobilization, dose response to LPA ([4]; varying concentrations of compound (0-10 μM), FIG. 5): inhibition
